Source: patent EP1992347A1 (CELLZOME AG, priority 2007, dated 2008)

Legend:
[1] = biological target: T1, receptor tyrosine kinase DDR1 (Homo sapiens, UniProt Q08345); assay: kinobeads competition binding assay in K562 cell lysate (iTRAQ mass spectrometry, Western blot); settings: at 1 µM
T1 construct: endogenous in cells; host or cells: K562 cells / K562 cell lysate
Description: From this dataset, dose-response binding profiles were computed.
All experiments were performed in duplicate.

FAK = FAK (Homo sapiens, UniProt Q05397); settings: phage display studies, Fabian et al., 2005; cited from earlier work
Chain of FAK (Q05397 whole entry, species assumed): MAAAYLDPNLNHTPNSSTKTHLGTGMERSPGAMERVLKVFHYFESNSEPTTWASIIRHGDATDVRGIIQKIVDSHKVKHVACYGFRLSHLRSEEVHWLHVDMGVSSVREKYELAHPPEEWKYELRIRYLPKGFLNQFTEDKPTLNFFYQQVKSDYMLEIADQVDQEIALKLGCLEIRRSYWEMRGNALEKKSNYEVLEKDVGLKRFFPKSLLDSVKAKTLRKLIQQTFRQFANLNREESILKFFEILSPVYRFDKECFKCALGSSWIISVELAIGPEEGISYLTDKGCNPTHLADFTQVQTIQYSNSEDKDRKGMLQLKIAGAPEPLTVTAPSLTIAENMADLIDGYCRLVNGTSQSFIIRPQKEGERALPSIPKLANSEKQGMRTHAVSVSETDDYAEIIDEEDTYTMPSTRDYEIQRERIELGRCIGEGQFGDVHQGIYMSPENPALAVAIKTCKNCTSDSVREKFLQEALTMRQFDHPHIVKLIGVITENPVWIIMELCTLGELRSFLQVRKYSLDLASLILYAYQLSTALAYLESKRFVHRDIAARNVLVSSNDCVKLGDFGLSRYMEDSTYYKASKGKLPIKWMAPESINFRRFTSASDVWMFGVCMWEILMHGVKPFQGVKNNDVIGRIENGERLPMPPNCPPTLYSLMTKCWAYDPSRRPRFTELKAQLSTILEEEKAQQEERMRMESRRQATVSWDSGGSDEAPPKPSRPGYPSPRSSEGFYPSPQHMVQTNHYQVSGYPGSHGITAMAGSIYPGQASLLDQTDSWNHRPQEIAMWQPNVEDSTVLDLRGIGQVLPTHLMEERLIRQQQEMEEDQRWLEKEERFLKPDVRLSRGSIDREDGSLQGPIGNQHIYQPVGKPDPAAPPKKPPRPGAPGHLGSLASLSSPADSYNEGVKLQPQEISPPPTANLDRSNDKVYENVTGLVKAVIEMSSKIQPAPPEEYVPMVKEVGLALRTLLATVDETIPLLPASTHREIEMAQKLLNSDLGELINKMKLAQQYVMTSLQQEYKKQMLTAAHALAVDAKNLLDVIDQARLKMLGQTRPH

T1 sequence (Q08345 19-913): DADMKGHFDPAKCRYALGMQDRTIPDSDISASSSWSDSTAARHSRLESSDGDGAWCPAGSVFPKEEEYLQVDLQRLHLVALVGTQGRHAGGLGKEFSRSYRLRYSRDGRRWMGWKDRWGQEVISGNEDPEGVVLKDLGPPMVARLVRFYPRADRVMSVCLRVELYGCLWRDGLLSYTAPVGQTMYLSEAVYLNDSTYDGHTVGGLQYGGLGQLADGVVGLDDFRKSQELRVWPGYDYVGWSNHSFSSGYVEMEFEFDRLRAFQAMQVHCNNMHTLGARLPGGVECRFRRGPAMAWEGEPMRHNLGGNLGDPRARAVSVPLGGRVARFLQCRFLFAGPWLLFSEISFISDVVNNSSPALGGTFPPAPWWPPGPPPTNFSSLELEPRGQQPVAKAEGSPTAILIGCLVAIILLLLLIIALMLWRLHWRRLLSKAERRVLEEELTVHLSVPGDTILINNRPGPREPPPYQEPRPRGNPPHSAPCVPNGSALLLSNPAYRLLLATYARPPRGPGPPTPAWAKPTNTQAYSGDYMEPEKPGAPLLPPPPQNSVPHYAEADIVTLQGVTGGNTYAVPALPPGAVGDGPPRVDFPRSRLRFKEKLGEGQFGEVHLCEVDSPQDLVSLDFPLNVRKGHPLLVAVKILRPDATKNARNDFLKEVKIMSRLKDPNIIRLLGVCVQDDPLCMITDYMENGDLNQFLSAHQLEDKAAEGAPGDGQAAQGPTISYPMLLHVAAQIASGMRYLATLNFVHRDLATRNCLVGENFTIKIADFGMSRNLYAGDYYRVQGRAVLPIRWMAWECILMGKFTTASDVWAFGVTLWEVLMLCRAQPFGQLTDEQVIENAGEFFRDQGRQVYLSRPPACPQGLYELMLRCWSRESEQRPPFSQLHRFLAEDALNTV

Which competition [1] does the source give for COc1cc(Nc2c(C#N)cnc3cc(OCCCN4CCN(C)CC4)c(OC)cc23)c(Cl)cc1Cl [bosutinib] here?
Its competition is over 50%.

Which “binding to FAK” value (FAK) does the source give for Cc1ccc(NC(=O)c2ccc(CN3CCN(C)CC3)cc2)cc1Nc1nccc(-c2cccnc2)n1 [imatinib, 4-(4-methylpiperazin-1-ylmethyl)-N-[4-methyl-3-(4-pyridin-3-yl)pyrimidin-2-ylamino)phenylbenzamide] here?
Its value is “no binding”.
